Here are results for 2 compounds from patent US12090153B2, “Combination therapy for the treatment of uveal melanoma” (The Board of Trustees of the University of Illinois, priority 2018, dated 2024).

The subject of one data set is 92.1. The experiment in a line: PAC-1 single agent IC50 in uveal melanoma cell line, 72-hour incubation. The format is cell-based. The note with it: 92.1, GNAQ Mutant Q209L, error s.e.m. The text has this: (§1) UM cell lines express procaspase-3 (FIG. 1), and PAC-1 has activity as a single agent in a panel of UM cell lines (Table D). [table]
A further data set has as its system MEL202. The description is as above. The format is cell-based. The note with it: MEL202, GNAQ Mutant Q209L, R210K, error s.e.m.
Text: as §1

Another data set deals with MEL270. The data set is described as above. The note with it: MEL270, GNAQ Mutant Q209P, error s.e.m. It is filed as cell-based.
Text: as §1

A further data set concerns MEL285. The data set is described as above. The format is cell-based. The settings on record: MEL285, GNAQ/11 WT, error s.e.m.
Text: as §1

A further data set has as its system MEL290. The data set is described as above. The note with it: MEL290, GNAQ/11 WT, error s.e.m. It is filed as cell-based.
Text: as §1

For the next data set, the system named is OMM1. The data set is described as above. The format is cell-based. The settings on record: OMM-1, OMM1, GNA11 Mutant Q209L, error s.e.m.
Text: as §1

The subject of the next data set is OMM2.5. Described as above. The settings on record: OMM2.5, GNAQ Mutant Q209P, error s.e.m. It is filed as cell-based.
Text: as §1

The next data set has as its system UM cell line MEL270. Kind of data set: Screen of PAC-1 in combination with kinase inhibitors, percent cell death. The format is cell-based. The settings on record: MEL270, 72-hour incubation, single agents and combination at the same concentrations (FIG. 2). An excerpt: FIG. 2. […] These three types of fusion proteins are key driver alterations in multiple cancer types.

A short description of data set [1]: PAC-1 clinical study in human patients, safety. The format is in vivo. How it is done: PAC-1 has been dosed in 34 human patients through 7 dose levels of PAC-1 (range: 75-750 mg). Two patients progressed during the first cycle of PAC-1 therapy. Thirty-two patients received PAC-1 for at least 2 dosing cycles (a cycle is 21 days of daily dosing followed by 7 days of no drug). As a result of stable disease responses, six patients received PAC-1 for 4 cycles, three patients received PAC-1 for 6 cycles and two patients received PAC-1 for 10 cycles.

A short description of data set [2]: GLP dog PK/preclinical PAC-1 toxicity studies. The format is in vivo.
The conditions of data set [3]: cited from earlier work.
Data set [4] deals with ROS1-rearranged lung cancers. The note with it: cited from earlier work.

The term IC50 denotes the concentration that inhibits the measured activity by half. A lower IC50 goes with greater potency. Regarding `C=CCc1cccc(/C=N/NC(=O)CN2CCN(Cc3ccccc3)CC2)c1O` [PAC-1], the IC50 was 3.6 ± 0.7 µM with 92.1; 10.3 ± 0.2 µM in the data set with MEL202; 9.8 ± 0.6 µM with MEL270; 7.4 ± 2.6 µM in the data set on MEL285; 11.7 ± 1.2 µM with MEL290; 4 ± 0.8 µM in the data set on OMM1. Further, it took 9.5 ± 0.5 µM to reach half-maximal inhibition with OMM2.5 (IC50). Besides, the Percent cell death in the data set with UM cell line MEL270 is given as approximately 16%. The “serious adverse events (SAEs) associated with PAC-1 administration” value in data set [1] (34 human patients, 7 dose levels, 75-750 mg) is “No serious adverse events”. Besides, in data set [1] (neurological and neurocognitive assessments through dose level 7 (750 mg)), the “neurotoxicity associated with PAC-1 dosing” value is “no conclusive signs of neurotoxicity”. In data set [2], the Brain tissue findings result is listed as “brain tissue changes observed”.
On to `CN1CCN(c2ccc(C(=O)Nc3n[nH]c4ccc(Cc5cc(F)cc(F)c5)cc34)c(NC3CCOCC3)c2)CC1` [entrectinib], for which the Percent cell death with UM cell line MEL270 was approximately 16%. In addition, the “treatment-related adverse events of any grade: myalgias” value in data set [3] (n=27/119) is reported as 23%. Besides, in data set [3] (n=33/119), the “treatment-related adverse events of any grade: nausea” value is 28%. In addition, the “treatment-related adverse events of any grade: paresthesias” value in data set [3] (n=34/119) is given as 29%. Besides, the “treatment-related adverse events of any grade: dysgeusia” value in data set [3] (n=50/119) was 42%. Moreover, the “treatment-related adverse events of any grade: fatigue/asthenia” value in [3] (n=55/119) is recorded as 46%. The “Disease control and progression-free survival” value in data set [4] is “durable disease control and prolonged progression-free survival”.
